# Laboratory results reported in patent US8940774B2, “Tris-Quaternary Ammonium Salts and Methods for Modulating Neuronal Nicotinic Acetylcholine Receptors” (University of Kentucky Research Foundation, priority 2005, dated 2015).
# Assays:
# [1] = molecular target: T1, α7-type neuronal nicotinic acetylcholine receptors (Rattus norvegicus, UniProt Q05941); experiment: Inhibition of [3H]Methyllycaconitine (MLA) binding assay, rat brain membranes; details: % inhibition at 100 nM concentration of analog; rat brain membranes; 2.5 nM [3H]MLA; read-out: Inhibition of [3H]MLA binding
# T1 construct: from tissue; host or cells: rat brain membranes (whole brain without cortex, striatum and cerebellum)
# T1 sequence (Q05941 23-502): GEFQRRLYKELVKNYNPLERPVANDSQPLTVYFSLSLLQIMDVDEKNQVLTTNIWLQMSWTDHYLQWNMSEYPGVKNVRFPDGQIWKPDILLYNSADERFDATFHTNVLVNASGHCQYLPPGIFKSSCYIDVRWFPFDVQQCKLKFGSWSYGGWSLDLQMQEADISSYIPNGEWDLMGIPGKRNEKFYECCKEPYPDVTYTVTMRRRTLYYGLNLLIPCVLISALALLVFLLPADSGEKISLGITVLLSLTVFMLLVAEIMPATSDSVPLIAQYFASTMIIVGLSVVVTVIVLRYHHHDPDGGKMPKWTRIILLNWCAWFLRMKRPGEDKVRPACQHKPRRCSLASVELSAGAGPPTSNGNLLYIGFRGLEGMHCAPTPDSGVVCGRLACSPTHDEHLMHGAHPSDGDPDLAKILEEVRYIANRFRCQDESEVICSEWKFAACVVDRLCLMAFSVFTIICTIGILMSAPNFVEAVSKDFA
# Method: Rat brain was dissected into the whole brain tissue without cortex, striatum and cerebellum and was frozen in liquid nitrogen and stored at −70° C. until use. The brain tissue was homogenized with a Tekmar Polytron (setting 40) in 20 volumes of ice-cold hypotonic buffer (2 mM HEPES, 14.4 mM NaCl, 0.15 mM KCl, 0.2 mM CaCl2 and 0.1 mM MgSO4, pH=7.5). The homogenate was incubated at 37° C. for 10 minutes and centrifuged at 25,000 g for 15 minutes at […] The pellet was washed 3 times more by resuspension in 20 volumes of the same buffer and centrifugation at the above parameters. The final pellet was stored at −20° C. under 4.6 mL of the incubation buffer and was suspended just before the incubation with radioligand.
# The binding of [^3H]MLA to probe α7-type neuronal nicotinic acetylcholine receptors was measured using a modification of the method of Davies at al., “Characterisation of the binding of [^3H]methyllycaconitine (MLA): a radioligand for labelling α7-type neuronal nicotinic acetylcholine receptors,” Neuropharmacology, 38, 679-690 (1999). [^3H]MLA (25.4 Ci/mmol) was purchased from Tocris Cookson Ltd., Bristol, U.K. Binding was performed in duplicate, in a final volume of 250 μL of the incubation medium, containing 20 mM HEPES, 144 mM NaCl, 1.5 mM KCl, 2 mM CaCl2, 1 mM MgSO4 and 0.05% BSA, pH=7.5. Reaction was initiated by the addition of 100 μL of membrane suspension to the samples containing a desired concentration of test compounds and […] [^3H]MLA (final concentration) and incubated for 2 hours it room temperature. Total binding was measured in the absence of unlabelled ligand, and nonspecific binding was determined by the presence of 1 μM unlabelled MLA. The binding reaction was terminated by dilution of samples with 3 mL of ice-cold incubation buffer followed by immediate filtration through glass fiber filters (S&S, grade #32, presoaked in 0.5% polyethylenimine) using a Brandel harvester system. Filters were rinsed three times with 3 mL of ice-cold buffer, transferred to scintillation vials and 4 mL of scintillation cocktail was added. Protein was measured using the Bradford dye-binding procedure with bovine serum albumin as the standard.
# The tris-quaternary ammonium salts were evaluated for their ability to displace [^3H]MLA binding from rat brain membranes.
# (§1) Data are % inhibition at 100 nM concentration of analog for at least 1-3 independent experiments. Specific binding in the [^3H]NIC binding assay is calculated at the difference between the total binding of [^3H]NIC and nonspecific binding in the presence of 10 μM cold nicotine. Specific binding for the [^3H]MLA binding assay is calculated as the difference between the total binding of 2.5 nM [^3H]MLA to the receptors alone and its nonspecific binding in the presence of 1 μM cold MLA. Analog-induced inhibition of nicotine-evoked [^3H]DA release is calculated as a percent of that in the absence of analog.
# [2] = system: NIC-evoked [3H]DA release from rat striatal slices; experiment: Nicotine-evoked [3H]dopamine release assay, superfused rat striatal slices; type: cell-based; details: 100 nM analog superfused 60 minutes prior to NIC (10 μM), percent of that in the absence of analog
# Method: Rat striatal slices (500 μm thickness, 6-8 mg wet weight) were incubated for 30 minutes in Krebs buffer (118 mM NaCl, 4.7 mM KCl, 1.2 mM MgCl2, 1.0 mM NaH2PO4, 1.3 mM CaCl2, 11.1 mM glucose, 25 mM NaHCO3, 0.11 mM L-ascorbic acid and 0.004 mM disodium EDTA; pH 7.4, and saturated with 95% O2/5% CO2) in a metabolic shaker at 34° C. Slices were rinsed with 15 mL of fresh buffer and incubated for an additional 30 minutes in fresh buffer containing 0.1 μM [^3H]dopamine (DA; 6 slices/3 mL). Subsequently, slices were rinsed with 15 mL of fresh buffer and transferred to a glass superfusion chamber. Slices were superfused (1.0 mL/min) for 60 minutes with Krebs buffer containing nomifensine (10 μM) and pargyline (10 μM) and maintained at 34° C., pH 7.4 with continual aeration (95% O2/5% CO2). Two five minute samples (5 mL each) were collected to determine basal outflow of [^3H]DA. Analogs were added to the superfusion buffer after the collection of the second sample and remained in the buffer until 12 consecutive five minute samples were collected. Subsequently, S-(−)-nicotine (10 μM) was added to the buffer and an additional 12 consecutive five minute samples were collected. At the end of the experiment, each slice was solubilized and the [^3H] content of the tissue determined.
# Radioactivity in the superfusate and tissue samples were determined by liquid scintillation spectroscopy. Fractional release for tritium collected in each sample was divided by the total tritium present at the time of sample collection and was expressed as a percentage of total tritium. Basal [^3H] outflow was calculated from the average of the tritium collected in the two five-minute samples just before addition of the analog. The sum of the increase in collected tritium resulting from either exposure to the test compound or exposure to S-(−)-nicotine in the absence cod presence of the test compound equaled total [^3H] overflow. [^3H] Overflow was calculated by subtracting the [^3H] outflow during an equivalent period of prestimulation from the values in samples collected during and after drug exposure. Inasmuch as the radiolabelled compounds were not separated and identified, the tritium in the superfusate is referred to as either [^3H] outflow or [^3H] overflow, rather than [^3H]DA. [^3H] Overflow primarily represents [^3H]DA in the presence of nomifesine and pargyline in the superfusion buffer. […]
# Analogs were also evaluated for their ability to inhibit NIC evoked [^3H]DA release. In these experiments, the striatal slices were superfused for 60 minutes with 100 nM concentration of the analogs prior to NIC (10 μM) exposure. Antagonist activity was evaluated by comparing the NIC-evoked [^3H] overflow in the absence and presence of the analogs. The relative order of potency of the analogs for inhibition of NIC-evoked [^3H]DA release from rat striatal slices is illustrated in Table 1.
# as §1
# [3] = molecular target: T2, Rat Striatal Nicotinic Receptors (Rattus norvegicus, UniProt P09483+P12390); experiment: Inhibition of [3H]Nicotine (NIC) binding assay, rat striatal membranes; details: % inhibition at 100 nM concentration of analog, 3 nM [3H]NIC
# T2 construct: from tissue; host or cells: rat striatal membranes
# T2 sequence (P09483 31-630): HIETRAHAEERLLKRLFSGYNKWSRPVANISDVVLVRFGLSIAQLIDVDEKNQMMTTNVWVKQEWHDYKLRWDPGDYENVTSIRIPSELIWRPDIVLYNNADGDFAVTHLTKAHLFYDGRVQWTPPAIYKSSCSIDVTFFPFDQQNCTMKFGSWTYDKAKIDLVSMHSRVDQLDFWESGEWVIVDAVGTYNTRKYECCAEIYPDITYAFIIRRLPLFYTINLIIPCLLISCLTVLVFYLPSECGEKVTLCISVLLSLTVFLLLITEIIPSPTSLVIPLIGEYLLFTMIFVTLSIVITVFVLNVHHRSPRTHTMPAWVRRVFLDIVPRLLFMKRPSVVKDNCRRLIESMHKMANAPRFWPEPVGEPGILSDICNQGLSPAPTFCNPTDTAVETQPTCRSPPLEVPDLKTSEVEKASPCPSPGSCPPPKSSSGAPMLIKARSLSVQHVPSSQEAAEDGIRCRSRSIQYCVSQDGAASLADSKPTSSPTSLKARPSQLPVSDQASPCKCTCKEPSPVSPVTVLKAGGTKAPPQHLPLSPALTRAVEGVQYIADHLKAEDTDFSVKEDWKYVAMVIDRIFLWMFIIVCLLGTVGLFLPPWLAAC
# T2 sequence (P12390 25-500): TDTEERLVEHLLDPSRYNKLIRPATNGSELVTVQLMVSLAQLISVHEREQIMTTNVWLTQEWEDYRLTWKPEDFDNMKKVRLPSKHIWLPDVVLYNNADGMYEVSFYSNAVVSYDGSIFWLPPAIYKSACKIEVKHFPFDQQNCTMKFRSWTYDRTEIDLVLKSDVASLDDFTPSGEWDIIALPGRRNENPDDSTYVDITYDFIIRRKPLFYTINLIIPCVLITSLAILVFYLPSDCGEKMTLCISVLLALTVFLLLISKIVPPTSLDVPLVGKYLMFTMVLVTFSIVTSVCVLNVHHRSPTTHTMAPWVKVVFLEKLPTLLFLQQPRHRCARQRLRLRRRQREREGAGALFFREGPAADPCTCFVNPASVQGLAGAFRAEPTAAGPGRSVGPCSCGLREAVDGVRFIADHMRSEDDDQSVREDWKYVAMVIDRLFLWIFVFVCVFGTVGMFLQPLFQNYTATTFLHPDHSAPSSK
# Method: Striata from two rats were dissected, pooled, and homogenized with a Tekmar polytron in 10 vol of ice-cold modified Krebs-HEPES buffer (20 mM HEPES, 118 mM NaCl, 4.8 mM, KCl, 2.5 mM CaCl2, 1.2 mM MgSO4, adjusted to pH 7.5). The homogenates were incubated at 37° C. for 5 minutes and centrifuged at 15,000 g for 20 minutes. The pellet was resuspended in 10 volumes of ice-cold MilliQ water, incubated for 5 minutes at 37° C., and centrifuged at 15,000 g for 20 minutes. The second pellet was then resuspended in 10 volumes of fresh ice-cold 10% Krebs-HEPES buffer, incubated at 37° C., and centrifuged at 15,000 g for 20 minutes. The latter sequence of resuspension, incubation and centrifugation was repeated. The pellet was frozen under fresh 10% Krebs-HEPES buffer and stored at −40° C. until assay. Upon assay, the pellet was resuspended in Krebs-HEPES buffer, incubated at 37° C. for 5 minutes, and centrifuged at 15,000 g for 20 minutes. The final pellet was resuspended in 3.6 mL ice-cold MilliQ water which provided for approximately 200 μg protein per 100 μL aliquot. Competition assays were performed in duplicate in a final volume of 200 μL Krebs-HEPES buffer containing […] Tris buffer (pH 7.5 at 4° C.). Reactions were initiated by addition of 100 μL of membrane suspension to 3 nM [^3H]NIC (50 μL) and one of at least nine concentrations of analog (50 μL). After a 90 minute incubation at 4° C., reactions were terminated by dilution of the samples with 3 mL of ice-cold Krebs-HEPES buffer followed immediately by filtration through Whatman GF/B glass fiber filters (presoaked in 0.5% polyethyleneimine) using a Brandel Cell Harvester. Filters were rinsed three times with 3 mL of ice-cold Krebs-HEPES buffer, transferred to scintillation vials, and 5 mL scintillation cocktail (Research Products international Corp., Mt. Prospect, Ill.) added. Nonspecific binding determined in triplicate was defined as binding in the presence of 10 μM NIC. Binding parameters were determined using the weighted, least squares non-linear regression. The tris-quaternary ammonium salts were evaluated for their ability to displace [^3H]NIC binding from rat striatal membranes.
# as §1
SMILES,inhibition at 0.1 µM [1],inhibition at 0.1 µM [2],inhibition at 0.1 µM [3]
"Cc1cc(C)c[n+](CCCCCc2cc(CCCCC[n+]3cc(C)cc(C)c3)cc(CCCCC[n+]3cc(C)cc(C)c3)c2)c1 [GZ557A, 1,3,5-tris-[5-(3,5-lutidinium)-pentyl]-benzene tribromide]",6.5 ± 3.6%,39 ± 18%,11 ± 2.9%
"Cc1cc[n+](CCCCCc2cc(CCCCC[n+]3ccc(C)c(C)c3)cc(CCCCC[n+]3ccc(C)c(C)c3)c2)cc1C [GZ557B, 1,3,5-tris-[5-(3,4-lutidinium)-pentyl]-benzene tribromide]",0.2 ± 0.2%,50 ± 21%,9.3 ± 4.1%
"c1ccc(-c2ccc[n+](CCCCCc3cc(CCCCC[n+]4cccc(-c5ccccc5)c4)cc(CCCCC[n+]4cccc(-c5ccccc5)c4)c3)c2)cc1 [GZ558A, 1,3,5-tris-[5-(3-phenyl-pyridinium)-pentyl]-benzene tribromide]",19 ± 1.7%,6 ± 5%,14 ± 5.8%
"CCCCc1ccc[n+](CCCCCc2cc(CCCCC[n+]3cccc(CCCC)c3)cc(CCCCC[n+]3cccc(CCCC)c3)c2)c1 [GZ558B, 1,3,5-tris-[5-(3-butyl-pyridinium)-pentyl]-benzene tribromide]",4.4 ± 3.3%,68 ± 14%,6.2 ± 4%
